From PubChem BioAssay (NCI)
“And” between values parts separate entries of the source, which are not always exact repeats. Equal values may be shown once.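 Five compound concentrations were applied to cells in 96-well plates for 48 hours; endpoints were derived by simple linear interpolation of the resulting dose-response curve. GI50 marks 50% less growth. The concentration for full growth arrest is given as TGI.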

Experiments:
Test in all cases: growth of human tumour cells (NCI), 48 h
[1] = tested on: A549 NSCLC
[2] = tested on: HOP-62 NSCLC
[3] = tested on: HOP-92 NSCLC
[4] = tested on: NCI-H226 lung
[5] = tested on: OVCAR-3 ovarian
[6] = tested on: OVCAR-5 ovarian
[7] = tested on: SK-OV-3 ovarian
[8] = tested on: TK-10 renal
[9] = tested on: UACC-257 melanoma
[10] = tested on: HCC-2998 colon

SMILES	GI50 [1]	TGI [1]	GI50 [2]	TGI [2]	GI50 [3]	TGI [3]	GI50 [4]	TGI [4]	GI50 [5]	TGI [5]	GI50 [6]	TGI [6]	GI50 [7]	TGI [7]	GI50 [8]	TGI [8]	GI50 [9]	TGI [9]	TGI [10]	GI50 [10]
COc1ccc(N=C2CSc3nnc(-c4cc(F)c(Cl)cc4Cl)n3N2)cc1	1.5 µM	4.42 µM	0.458 µM	2.77 µM	2.83 µM	19.1 µM	3.84 µM	38.2 µM	0.466 µM	2.02 µM	1.9 µM	4.57 µM	0.987 µM	5.39 µM	1.4 µM	4.06 µM	1.38 µM	4.16 µM		
Cc1cc2c(c(C#N)c1C)NC(=O)CCC2=O		> 100 µM		> 100 µM						> 100 µM								> 100 µM	> 100 µM	
Cc1c2c(nn1-c1ccc(S(=O)(=O)NC(=S)Nc3ccccc3)cc1)-c1ccccc1CC2	> 50 µM	> 50 µM			> 50 µM	> 50 µM	> 50 µM	> 50 µM	36.8 µM	> 50 µM	> 50 µM	> 50 µM	> 50 µM	> 50 µM	10 µM	46.9 µM	> 50 µM	> 50 µM		
Nn1c(-c2ccccc2)nc2ccc(Br)cc2c1=O		> 100 µM				98 µM		> 100 µM		81.9 µM		> 100 µM		> 100 µM		> 100 µM		> 100 µM	> 100 µM	
Cc1cc(C)nc(NS(=O)(=O)c2ccc(Nc3c4ccccc4nc4c(C(=O)Nc5ccc(S(=O)(=O)N=C(N)N)cc5)ccc(Cl)c34)cc2)n1		> 100 µM		54.8 µM				58.1 µM		37.5 µM		> 100 µM		51 µM		95.5 µM		> 100 µM	38.4 µM	
Cn1c2c(c3ccccc31)CCN(CCCCN1CCc3c(n(C)c4ccccc34)C1=O)C2		> 100 µM		> 100 µM		> 100 µM				> 100 µM		> 100 µM		> 100 µM		> 100 µM		> 100 µM		
COc1ccc(-c2nc3sc(C)cn3c2/C=C/C(=O)c2cc(OC)c(OC)c(OC)c2)cc1	3.37 µM	> 100 µM	4.28 µM	> 100 µM			4.12 µM	> 100 µM	2.34 µM	5.83 µM	> 100 µM	> 100 µM	4.19 µM	> 100 µM	5.55 µM	> 100 µM	2.49 µM	6.37 µM	7.66 µM	3.71 µM
COc1nc(N(C)O)nc(N(C)O)n1	1.39 µM	> 100 µM	0.442 µM	6.3 µM			2.48 µM	55.4 µM	0.794 µM	> 100 µM			1.75 µM	> 100 µM	1.97 µM	> 100 µM	3.52 µM	> 100 µM	> 100 µM	2.25 µM
N#CCC(=O)Nc1cccc(C(F)(F)F)c1		> 100 µM		> 100 µM				> 100 µM		> 100 µM		> 100 µM		> 100 µM		> 100 µM		> 100 µM	> 100 µM	
N#Cc1cn(C2OC(CO)C(O)C2O)c2ncnc(N)c12 (stereo unspecified)	< 0.01 µM	> 450 µM	0.0533 µM		0.000461 µM	0.665 µM and 0.182 µM					0.238 µM		0.108 µM		0.000405 µM	0.0771 µM				0.0609 µM and 0.0758 µM and < 0.0249 µM
COc1cc(CCc2ccc(OCCN(C)C)cc2)cc(OC)c1OC		> 100 µM		> 100 µM		> 100 µM		> 100 µM		> 100 µM		88.4 µM				> 100 µM		> 100 µM		
Nc1ccn(CCOC(=O)c2ccccc2)c(=O)n1		> 100 µM		> 100 µM		> 100 µM		> 100 µM		> 100 µM		> 100 µM		> 100 µM		> 100 µM		> 100 µM		
Cc1ncc(CN=Cc2ccc(Cl)cc2)c(N)n1		> 100 µM		> 100 µM		> 100 µM		> 100 µM		> 100 µM		> 100 µM		> 100 µM		> 100 µM		> 100 µM		
C=C1C(=O)O[C@H]2[C@H]1CC/C(Cn1cc(CNC(=O)Cc3cn(C(=O)c4ccc(Cl)cc4)c4ccc(OC)cc34)nn1)=C\CC[C@@]1(C)O[C@@H]21	12.7 µM	29.6 µM	3.91 µM	15.1 µM	1.21 µM	2.65 µM	1.76 µM	3.41 µM	1.61 µM	3.19 µM	1.66 µM	3.34 µM	16.1 µM	32.9 µM	1.77 µM	3.24 µM	1.75 µM	3.39 µM		
O=C(c1ccccc1)C(c1ccccc1)C1(O)C(=O)Nc2c(Cl)cc(Cl)cc21 (stereo unspecified)		41.8 µM				40 µM		32.6 µM		> 100 µM		33.2 µM		70.1 µM		41.2 µM		35 µM	33.8 µM	
